From ChEMBL document CHEMBL5728999, “Sulfoximine glycosidase inhibitors” (2022)
pIC50: −log10 of the molar value.

Biological target: T1, Protein O-GlcNAcase (Homo sapiens, UniProt O60502)
T1 sequence (O60502 whole entry): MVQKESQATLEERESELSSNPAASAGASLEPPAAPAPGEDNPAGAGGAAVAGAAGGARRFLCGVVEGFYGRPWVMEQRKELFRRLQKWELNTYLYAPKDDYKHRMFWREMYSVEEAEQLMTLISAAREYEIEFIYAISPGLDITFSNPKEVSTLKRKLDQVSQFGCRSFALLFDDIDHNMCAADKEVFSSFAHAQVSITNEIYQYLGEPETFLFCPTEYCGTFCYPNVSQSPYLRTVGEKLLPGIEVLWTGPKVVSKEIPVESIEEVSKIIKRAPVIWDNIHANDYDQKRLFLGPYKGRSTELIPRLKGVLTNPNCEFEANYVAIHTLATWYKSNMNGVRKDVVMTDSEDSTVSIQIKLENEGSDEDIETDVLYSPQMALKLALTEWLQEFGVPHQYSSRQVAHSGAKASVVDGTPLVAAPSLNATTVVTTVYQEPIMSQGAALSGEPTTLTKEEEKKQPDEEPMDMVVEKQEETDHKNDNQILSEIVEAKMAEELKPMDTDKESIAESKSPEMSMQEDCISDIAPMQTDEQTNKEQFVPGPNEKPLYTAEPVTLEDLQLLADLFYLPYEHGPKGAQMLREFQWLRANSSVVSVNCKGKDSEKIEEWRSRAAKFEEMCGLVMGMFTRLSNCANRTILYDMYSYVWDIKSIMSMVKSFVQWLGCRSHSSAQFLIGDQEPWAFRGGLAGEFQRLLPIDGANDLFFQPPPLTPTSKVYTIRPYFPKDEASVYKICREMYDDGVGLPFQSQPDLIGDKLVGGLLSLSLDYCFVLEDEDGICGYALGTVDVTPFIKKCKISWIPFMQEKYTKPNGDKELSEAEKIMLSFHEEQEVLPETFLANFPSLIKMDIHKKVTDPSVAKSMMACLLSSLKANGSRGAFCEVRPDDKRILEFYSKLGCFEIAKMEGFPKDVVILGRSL
Assay: Human O-GlcNAcase enzyme inhibition assay: 5 μl of the appropriate concentration of a solution of inhibitor in McIlvaine's Buffer (pH 6.5) in 2% DMSO (for a dose response curve calculation) is added into each well of a 384-well plate (Greiner, 781900). Then, 20 nM of His-Tagged hOGA and 10 μM of FL-GlcNAc (Fluorescein mono-beta-D-(2-deoxy-2-N-acetyl) glucopyranoside; Marker Gene Technologies Inc, M1485) were added to the 384-well plate for a final volume of 20 μl. After incubation for 60 min at room temperature, the reaction was terminated by the addition of 10 μL of stop buffer (200 mM glycine, pH 10.75).

pIC50: > 7.30
SMILES: CC(c1ccc2c(c1)OCC2)N1CCN(c2ncnc3c2CS(=N)(=O)C3)CC1 (stereo unspecified)
